Assay results published in patent US8410078B2, “Composition and methods to treat cardiac diseases” (University of Connecticut, priority 2006, dated 2013).

What was measured:
[1] = system: cardiac P2X receptor; test: Whole-cell voltage clamp of P2 agonist-induced current in WT ventricular myocytes; format: cell-based, mouse
Excerpt: Mice displaying the CSQ model of severe cardiomyopathy and heart failure were bred and maintained by methods known in the art. The CSQ transgenic (TG) mice were originally provided by Dr. Larry Jones (Krannert Institute of Cardiology, Indiana University School of Medicine, Indiana), and developed hypertrophy followed by a lethal heart failure phenotype with death near the age of 3 months. Ventricular myocytes were obtained from 3-month old wild type (WT) and CSQ mice of either sex (26 WT, 47 TG) by an enzymatic dissociation procedure. Briefly, the hearts were rapidly excised from mice that had been anesthetized with pentobarbital and treated with 1000 Units of heparin. The aorta was cannulated and the heart perfused in a Langendorff apparatus with oxygenated (95% O2/5% CO2) Ca^2+-free solution (37° C.) for 5 minutes at a rate of 2.5 ml/min. The solution composition was: 126 mM NaCl, 4.4 mM KCl, 1.0 mM MgCl2, 18 mM NaHCO3, 11 mM Glucose, 4 mM HEPES, and 3 mM BDM (2,3-butanedione monoxime), (pH 7.3 adjusted with NaOH). Thereafter, the perfusing solution was changed to that containing 25 μM CaCl2 and liberase (70 μg/ml, Roche Molecular Biochemicals, Inc.) for 8-10 minutes. Cells were sedimented by gravity for 10-15 minutes and the pellet was resuspended in 200 μM Ca^2+-containing Tyrode's solution (containing 3 mM BDM), allowed to settle for 30 minutes at room temperature, and suspended with Tyrode's solution containing: 135 mM NaCl, 5.4 mM KCl, 1.0 mM CaCl2, 1.0 mM MgCl2, 10 mM HEPES and 10 mM dextrose (pH 7.4 adjusted with NaOH). The experiments were carried out at room temperature (22-23° C.) and were completed within 4-6 hours after myocyte isolation.
The whole cell patch-clamp technique was used for these experiments. Electrodes were prepared from borosilicate glass pipettes (1.2 mm i.d.) with a two step pulling procedure and filled with pipette solution. The pipette was connected via an Ag—AgCl wire to the head stage of an amplifier (List EPC-7, Medical Systems, Greenvale, N.Y.) controlled by a computer and Axon pClamp™ software. For voltage clamp experiments, the electrodes were filled with a solution containing: 135 mM cesium aspartate, 5 mM NaCl, 5 mM Mg2ATP, 10 mM HEPES, and 10 mM EGTA (pH 7.3 adjusted with CsOH) with or without 2 mM GDPβS. Electrode resistances were 2-4 MΩ. As soon as electrical contact was established, the superfusion medium was changed to a modified Tyrode's solution (5.4 mM KCl was omitted and 10 mM CsCl and 5 μM ouabain were added to Tyrode's solution to block K^+ currents and the Na/K pump current, respectively). In quantifying the P2 agonist-induced current, the Tyrode's solution contained the indicated concentration of each agent. In studying the effect of a P2 receptor antagonist, both agonist and antagonist were co-applied at the indicated concentrations. The voltage clamp protocol used was a ramp voltage protocol from −100 mV holding potential to +50 mV. The ramp protocol was applied to cells at 20 s intervals for 1 minute. Three current traces from −100 mV to 50 mV were averaged to construct the I-V relationship.

[2] = system: WT mice; test: Survival after LAD ligation-induced myocardial infarction in WT mice; format: in vivo, mouse; conditions: treated from two days post-infarction, up to 60 days post-infarction
Protocol: Ligation of LAD in anesthetized mice was carried out using procedures similar to those previously described in the art. Adult WT (BL6) or P2X4R Tg mice 12-14 weeks old of either gender were anesthetized with ketamine (100 mg/kg) and xylazine (5 mg/kg) intraperitoneally. Under a dissecting microscope, mice were placed in a supine position on a heated pad to keep body temperature at 37° C. After endotracheal intubation, the cannula was connected to a small rodent ventilator (Hugo Sachs-Harvard Apparatus, Minivent Type 845, Holliston, Mass.) on room air with a stroke volume of 0.3 ml at a rate of 160 per min. A left intercostals thoracotomy was performed and myocardial infarction was produced by ligating the left anterior descending coronary artery with an 8-0 nylon suture within 2 mm below the edge of left atrium near the origin of the artery. The ligation was deemed successful when the left anterior wall turned pale and the ligation was aimed to induce a 30-40% infarct size. Animals were used according to the approved protocols of the Institutional Review Board at University of Connecticut School of Medicine.
The LAD ligation-mediated ischemic cardiomyopathy was induced in WT mice. (FIG. 26) At two days post-infarction, 15 mice were treated with […] and 19 mice were treated with NS (normal saline as the vehicle control). […]

[3] = system: mouse thoracic aorta ring; test: Vascular reactivity of phenylephrine-preconstricted thoracic aorta rings; conditions: pre-constricted with phenylephrine, 10^−9 to 10^−5 M
Protocol: Thoracic aortas were quickly removed from 8 to 10-week wild type (C57 BL6) mice, cut into 3 mm rings. After pre-constriction with phenylephrine (1 μM), increasing concentrations of acetylcholine or MRS2339 were added in a cumulative fashion to achieve a concentration-response curve. The % relaxation was determined as % decrease in ring tension (gram) compared to the tension before the addition of acetylcholine or MRS2339. Data were shown as mean±SEM.

`Nc1nc(Cl)nc2c1ncn2C1[C@H]2C[C@@]2(COP(=O)(O)O)[C@@H](O)[C@H]1O` (stereo partly drawn) [MRS2339, (1′S,2′R,3′S,4′R,5′S)-4-(6-amino-2-chloro-9H-purin-9-yl)-1-[phosphoryloxymethyl]bicyclo[3.1.0]hexane-2,3-diol] was tested, and the “Effect of GDPβS on MRS2339-evoked current density” value ([1]; at +50 mV) was “no difference”, the “MRS2339-evoked current density in the absence of GDPβS” value ([1]; at −100 mV) was −0.73±0.15 pA/pF and the “MRS2339-evoked current density with GDPβS” value ([1]; at −100 mV) was −0.66±0.10 pA/pF. The Post-infarction survival [2] was “greater than 95%” and the “Relaxation of aorta ring segments” value [3] was “did not induce relaxation”.
